Patent publication US12655127B2, “Fused ring compound as Wee-1 inhibitor” (WIGEN BIOMEDICINE TECHNOLOGY (SHANGHAI) CO., LTD., priority 2021, dated 2026)

Columns and labels:
[1] = molecular target: recombinant protein Wee-1 (Homo sapiens, UniProt P30291); test: Inhibition of enzymatic activity of recombinant protein Wee-1 (HTRF); assay type: biochemical
Method: The inhibitory effect of the compounds on the enzyme activity of recombinant protein Wee-1 was determined by HTRF. The procedures are as follows:
After DMSO or serially diluted compounds (up to 200 nM, 1:5 serially diluted) and recombinant proteins were co-incubated in a kinase buffer at 37° C. for 30 min Fluorescein-PolyGAT and ATP were added, and then the reaction was started by the addition of a substrate. After incubation at room temperature for 90 min, an antibody and a detection solution were added, and after further incubation at room temperature for 60 min, fluorescence values were detected (excitation wavelength: 340 nm, emission wavelengths: 495 and 520 nm). The 520 nm/495 nm fluorescence intensity ratio value was calculated, and compared with that of the DMSO group, and then the inhibition percentages and IC50 values of the compounds were calculated.

MIA PaCa-2 cells [2] = test: In-vitro anti-proliferative activity in combination with gemcitabine on MIA PaCa-2 cells; assay type: cell-based; settings: with 20 nM gemcitabine, 72 h after dosing, intracellular ATP content
Method: (§1) MIA PaCa-2 cells were seeded on a 384-well plate at 3000 cells/well, and 20 nM gemcitabine was added. After overnight adherence culture, DMSO or the compounds serially diluted 1:5 from 100 nM were added. The viability was assessed 72 h after dosing by measuring the intracellular ATP content. The inhibition percentage of viable cells by the compounds was calculated by comparing with the DMSO group, and the IC50 value was calculated.

MIA PaCa-2 cells [3] = test: In-vitro anti-proliferative activity on MIA PaCa-2 cells; assay type: cell-based; settings: Homo sapiens, 72 h after dosing, intracellular ATP content
Method: as §1, with “cells/well.” for “cells/well, and 20 nM gemcitabine was added.”, “5 μM” for “100 nM”

[4] = system: HT29 subcutaneous xenograft tumor; test: Mouse HT29 subcutaneous xenograft tumor model; assay type: in vivo; settings: for TGI: day 18, nude mouse HT29 xenograft; for Tumor volume on day 1 of treatment (mm^3) / Tumor volume on day 18 of treatment (mm^3): nude mouse HT29 xenograft
Method: HT29 is a colon cancer cell. Each nude mouse was grafted subcutaneously with 5×10^6 HT29 cells. When the tumor grew to 100-200 mm^3, the compound was administered orally once a day alone or in combination with 15 mg/kg of gemcitabine injected intraperitoneally once a week, and the tumor volume was measured twice a week and at the end of treatment. Tumor growth inhibition of the compound was calculated according to the following equation: tumor growth inhibition (TGI)=1−(tumor volume on day 18 in treatment group−tumor volume on day 1 in treatment group)/(tumor volume on day 18 in vehicle control group−tumor volume on day 1 in treatment group).

[5] = 30 mg/kg orally once a day in combination with 15 mg/kg of gemcitabine i.p. once a week
[6] = monotherapy, 30 mg/kg orally once a day
[7] = gemcitabine 15 mg/kg intraperitoneally once a week

recombinant protein Wee-1, sequence (P30291 whole entry): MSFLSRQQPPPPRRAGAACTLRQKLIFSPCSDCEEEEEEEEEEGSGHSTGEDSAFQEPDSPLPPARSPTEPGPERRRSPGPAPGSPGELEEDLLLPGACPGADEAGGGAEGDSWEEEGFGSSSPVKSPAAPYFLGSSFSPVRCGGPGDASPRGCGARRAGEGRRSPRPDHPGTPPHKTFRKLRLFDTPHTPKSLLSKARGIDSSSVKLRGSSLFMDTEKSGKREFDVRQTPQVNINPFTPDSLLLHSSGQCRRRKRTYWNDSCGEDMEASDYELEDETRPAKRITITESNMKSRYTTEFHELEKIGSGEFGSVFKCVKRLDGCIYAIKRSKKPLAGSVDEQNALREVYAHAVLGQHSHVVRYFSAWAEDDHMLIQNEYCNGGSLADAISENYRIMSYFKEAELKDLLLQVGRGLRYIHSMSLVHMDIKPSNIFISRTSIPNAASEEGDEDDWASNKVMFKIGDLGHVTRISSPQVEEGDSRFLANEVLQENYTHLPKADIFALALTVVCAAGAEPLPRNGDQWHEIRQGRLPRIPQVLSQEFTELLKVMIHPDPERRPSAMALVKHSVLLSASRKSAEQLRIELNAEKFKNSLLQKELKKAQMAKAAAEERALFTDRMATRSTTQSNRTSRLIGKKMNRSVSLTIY

Row | Structure (SMILES) | IC50 [1] [nM] | IC50 (MIA PaCa-2 cells [2]) [nM] | IC50 (MIA PaCa-2 cells [3]) [nM] | further results
1 | CN1Cc2cc(Nc3ncc(C#N)c(Nc4cccc(N=S(C)(C)=O)n4)n3)cc3c2[C@@](C)(CCC3)C1 [Compound 6] | ≤ 10 | 5.3 | 910 | –
2 | CN1Cc2cc(Nc3ncc(C#N)c(Nc4cccc(P(C)(C)=O)n4)n3)cc3c2C(CCC3)C1 (centres unmarked) [Compound 137] | ≤ 10 | 26 | > 5000 | –
3 | CN1Cc2cc(Nc3ncc(C#N)c(Nc4cccc(N=S(C)(C)=O)n4)n3)cc3c2C(CCO3)C1 (centres unmarked) [Compound 64] | ≤ 10 | 3.5 | 400 | –
4 | CN1Cc2cc(Nc3ncc(C#N)c(Nc4cccc(N=S(C)(C)=O)n4)n3)cc3c2C1CCC3 (centres unmarked) [Compound 87] | ≤ 10 | 1.6 | 184 | –
5 | CN1Cc2cc(Nc3ncc(C#N)c(Nc4cccc(N=S(C)(C)=O)n4)n3)cc3c2[C@](C)(CCC3)C1 [Compound 5] | ≤ 10 | 2.1 | 1180 | –
6 | CN1Cc2cc(Nc3ncc(C#N)c(Nc4cccc(N=S(C)(C)=O)n4)n3)cc3c2C(C)(CCC3)C1 (centres unmarked) [Compound 4] | ≤ 10 | 2.4 | 968 | –
7 | Nc1ccn([C@@H]2O[C@H](CO)[C@@H](O)C2(F)F)c(=O)n1 [Gemcitabine, gemcitabine, reference compound] | – | – | – | TGI [4, 7]: 57%; Tumor volume on day 1 of treatment (mm^3) [4, 7]: 112 mm^3; Tumor volume on day 18 of treatment (mm^3) [4, 7]: 539 mm^3
8 | COc1c(Nc2ncc(C#N)c(Nc3cccc(N=S(C)(C)=O)n3)n2)cc2c3c1CCCC3CN(C)C2 (centres unmarked) [Compound 49] | 10 to 50 | > 100 | > 5000 | –

The next lines start with results.

Row | IC50 [1] [nM] | IC50 (MIA PaCa-2 cells [2]) [nM] | IC50 (MIA PaCa-2 cells [3]) [nM] | Structure (SMILES) | further results
9 | ≤ 10 | 11 | 225 | CN1Cc2cc(Nc3ncc(C#N)c(Nc4cc5ccccc5c(N=S(C)(C)=O)n4)n3)cc3c2C(CCC3)C1 (centres unmarked) [Compound 108] | –
10 | ≤ 10 | 1.4 | 89 | COc1ccc(Nc2nc(Nc3cc4c5c(c3)CN(C)CC5CCC4)ncc2C#N)nc1N=S(C)(C)=O (centres unmarked) [Compound 121] | –
11 | – | 1.1 | 186 | CN1Cc2cc(Nc3ncc(C#N)c(Nc4ccc(F)c(N=S(C)(C)=O)n4)n3)cc3c2C(CCC3)C1 (centres unmarked) [Compound 110] | –
12 | 10 to 50 | > 100 | 148 | CN1Cc2cc(Nc3ncc(C#N)c(Nc4cccc(N=S(C)(C)=O)n4)n3)cc3c2C(CC3)C1 (centres unmarked) [Compound 50] | –
13 | ≤ 10 | 1.5 | 72 | Cc1ccc(Nc2nc(Nc3cc4c5c(c3)CN(C)CC5CCC4)ncc2C#N)nc1N=S(C)(C)=O (centres unmarked) [Compound 295] | –
14 | ≤ 10 | 29 | > 5000 | CN1Cc2cc(Nc3ncc(C#N)c(Nc4nc(N=S(C)(C)=O)ccc4F)n3)cc3c2C(CCC3)C1 (centres unmarked) [Compound 112] | –
15 | ≤ 10 | 3.1 | 161 | CN1Cc2cc(Nc3ncc(C#N)c(Nc4ccc(Cl)c(N=S(C)(C)=O)n4)n3)cc3c2C(CCC3)C1 (centres unmarked) [Compound 296] | –
16 | ≤ 10 | 1.9 | 236 | CN1Cc2cc(Nc3ncc(C#N)c(Nc4cccc(N=S(C)(C)=O)n4)n3)cc3c2C(CCC3)C1 (centres unmarked) [Compound 1] | –
17 | ≤ 10 | 0.245 | 259 | CN1Cc2cc(Nc3ncc(C#N)c(Nc4cccc(N=S(C)(C)=O)n4)n3)cc3c2[C@H](CCC3)C1 (single isomer, unassigned) [Compound 2] | TGI [4, 5]: 109%; Tumor volume on day 1 of treatment (mm^3) [4, 5]: 112 mm^3; Tumor volume on day 18 of treatment (mm^3) [4, 5]: 11 mm^3; TGI [4, 6]: 99%; Tumor volume on day 1 of treatment (mm^3) [4, 6]: 112 mm^3; Tumor volume on day 18 of treatment (mm^3) [4, 6]: 115 mm^3
18 | ≤ 10 | 2.1 | 441 | CN1Cc2cc(Nc3ncc(C#N)c(Nc4cncc(N=S(C)(C)=O)n4)n3)cc3c2C(CCC3)C1 (centres unmarked) [Compound 105] | –
19 | ≤ 10 | 6.4 | 1090 | CN1Cc2cc(Nc3ncc(C#N)c(Nc4cccc(N=S(C)(C)=O)n4)n3)cc3c2[C@@H](CCC3)C1 (single isomer, unassigned) [Compound 3] | –
